Read-outs that look alike come from different tables or passages of the source.
Tested on: wild-type HIV-1 (HIV-1LAI) in H9 cells (non-permissive)
Test: microbe, parasite or virus in culture
Type: cell-based
[1] = Human immunodeficiency virus 1, H9, read-out: Antiviral activity (IC50 μM) H9 cells, Table 5, wild-type HIV-1, non-permissive H9 cells
[2] = Human immunodeficiency virus 1, H9, read-out: Antiviral activity (IC50 μM) H9 cells, Table 8, wild-type HIV-1, non-permissive H9 cells
[3] = Human immunodeficiency virus 1, H9, read-out: Antiviral activity (IC50 μM) H9 cells, wild-type HIV-1 (HIV-1LAI), H9 cells (non-permissive), RT activity in culture supernatants, compounds 1 to 50 μM
[4] = read-out: Antiviral activity (IC50 μM) H9, Table 2, wild-type HIV-1, non-permissive H9 cells
[5] = read-out: Antiviral activity (IC50 μM) H9 cells, Table 5, wild-type HIV-1, non-permissive H9 cells
[6] = read-out: Antiviral activity (IC50 μM) H9 cells, Table 8, wild-type HIV-1, non-permissive H9 cells
[7] = read-out: Antiviral activity (IC50 μM) H9 cells, wild-type HIV-1 (HIV-1LAI), H9 cells (non-permissive), RT activity in culture supernatants, compounds 1 to 50 μM

| Compound | IC50 [1] [µM] | IC50 [2] [µM] | IC50 [3] [µM] | further results |
| --- | --- | --- | --- | --- |
| COc1ccc(Sc2ccccc2-c2cn(-c3ccccc3OC)nn2)cc1 [Compound 2cx, 1-(2-Methoxyphenyl)-4-(2-((4-methoxyphenyl)thio)phenyl)-1H-1,2,3-triazole] | 13.6 | 13.6 | 13.6 | – |
| COc1ccccc1-n1cc(-c2ccccc2Sc2ccc(C(=O)O)cc2)nn1 [Compound 2gx, 2-Hydroxy-N,N,N-trimethylethanaminium 4-((2-(1-(2-methoxyphenyl)-1H-1,2,3-triazol-4-yl)phenyl)thio)benzoate] | – | – | – | IC50 [4]: > 50 µM; IC50 [5]: > 50 µM; IC50 [6]: > 50 µM; IC50 [7]: > 50 µM |
| COc1ccc(Sc2ccccc2-c2cn(-c3cccc(OC)c3OC)nn2)cc1 [Compound 3cx, 1-(2,3-Dimethoxyphenyl)-4-(2-((4-methoxyphenyl)thio)phenyl)-1H-1,2,3-triazole] | 4.7 | 4.7 | 4.7 | IC50 (Human immunodeficiency virus 1, H9, read-out: Antiviral activity (IC50 μM) H9 Cells, Table 4, wild-type HIV-1, non-permissive H9 cells): 4.7 µM; IC50 (Human immunodeficiency virus 1, H9, read-out: Antiviral activity (IC50 μM) H9 Cells, Table 7, wild-type HIV-1, non-permissive H9 cells): 4.7 µM |
| COc1cccc(-n2cc(-c3ccccc3Sc3ccc(N)cc3)nn2)c1OC [Compound 3ex, 4-((2-(1-(2,3-Dimethoxyphenyl)-1H-1,2,3-triazol-4-yl)phenyl)thio)aniline] | 5 | 5 | 5 | – |
| COc1cccc(-n2cc(-c3ccccc3Sc3ccc(C(=O)O)cc3)nn2)c1OC [Compound 3gx, 2-Hydroxy-N,N,N-trimethylethanaminium 4-((2-(1-(2,3-dimethoxyphenyl)-1H-1,2,3-triazol-4-yl)phenyl)thio)benzoate] | – | – | – | IC50 [4]: 4.3 µM; IC50 (read-out: Antiviral activity (IC50 μM) H9 Cells, Table 4, wild-type HIV-1, non-permissive H9 cells): 4.3 µM; IC50 (read-out: Antiviral activity (IC50 μM) H9 Cells, Table 7, wild-type HIV-1, non-permissive H9 cells): 4.3 µM; IC50 [5]: 4.3 µM; IC50 [6]: 4.3 µM; IC50 [7]: 4.3 µM |
| COc1cccc(-n2cc(-c3ccccc3S(=O)(=O)c3ccc(C(=O)O)cc3)nn2)c1OC [Compound 3gy, 2-Hydroxy-N,N,N-trimethylethanaminium 4-((2-(1-(2,3-dimethoxyphenyl)-1H-1,2,3-triazol-4-yl)phenyl)sulfonyl)benzoate] | – | – | – | IC50 [4]: > 50 µM; IC50 [5]: > 50 µM; IC50 [6]: > 50 µM; IC50 [7]: > 50 µM |
| COc1ccc(-n2cc(-c3ccccc3Sc3ccc([N+](=O)[O-])cc3)nn2)c(OC)c1 [Compound 4ax, 1-(2,4-Dimethoxyphenyl)-4-(2-((4-nitrophenyl)thio)phenyl)-1H-1,2,3-triazole] | > 50 | > 50 | > 50 | – |
| COC(=O)c1ccc(S(=O)(=O)c2ccccc2-c2cn(-c3ccc(OC)cc3OC)nn2)cc1 [Compound 4by, Methyl 4-((2-(1-(2,4-dimethoxyphenyl)-1H-1,2,3-triazol-4-yl)phenyl)sulfonyl)benzoate] | 7.6 | 7.6 | 7.6 | – |
| COc1ccc(Sc2ccccc2-c2cn(-c3ccc(OC)cc3OC)nn2)cc1 [Compound 4cx, 1-(2,4-Dimethoxyphenyl)-4-(2-((4-methoxyphenyl)thio)phenyl)-1H-1,2,3-triazole] | > 50 | > 50 | > 50 | – |
| COc1ccc(-n2cc(-c3ccccc3Sc3ccc(C(F)(F)F)cc3)nn2)c(OC)c1 [Compound 4dx, 1-(2,4-Dimethoxyphenyl)-4-(2-((4-(trifluoromethyl)phenyl)thio)phenyl)-1H-1,2,3-triazole] | 1.1 | 1.1 | 1.1 | – |
| COc1ccc(-n2cc(-c3ccccc3Sc3ccc(N)cc3)nn2)c(OC)c1 [Compound 4ex, 4-((2-(1-(2,4-Dimethoxyphenyl)-1H-1,2,3-triazol-4-yl)phenyl)thio)aniline] | > 50 | > 50 | > 50 | – |
| COc1ccc(-n2cc(-c3ccccc3S(=O)(=O)c3ccc(N)cc3)nn2)c(OC)c1 [Compound 4ey, 4-((2-(1-(2,4-Dimethoxyphenyl)-1H-1,2,3-triazol-4-yl)phenyl)sulfonyl)aniline] | > 50 | > 50 | > 50 | – |

Reference: patent US11136301B2, “Broad spectrum antiviral compounds and uses thereof” (The Regents Of The University Of California, priority 2015, dated 2021)
